Experimental data reported in patent publication US20180252712A1, “RECEPTOR FOR NOROVIRUS AND USES THEREOF” (priority 2017, published 2018).

B1: sCD300lf: recombinant, soluble ectodomain of mouse CD300lf (residues 20-128 of GenBank AAH57864.1), expressed in E. coli and refolded (protein)
chain: MEDPVTGPEEVSGQEQGSLTVQCRYTSGWKDYKKYWCQGVPQRSCKTLVETDASEQLVKKNRVSIRDNQRDFIFTVTMEDLRMSDAGIYWCGITKGGLDPMFKVTVNIGP

Experiments:
MNoV^CW3 [1] = assay: CRISPR screen in BV2-Cas9 cells, sgRNA enrichment after MNoV^CW3 infection; assay type: cell-based, murine norovirus; conditions: for log2 fold enrichment after MNV infection relative to mock infected cells, CW3 MOI 0.05: MNoV^CW3, MOI 0.05, ten days post-infection; for log2 fold enrichment after MNV infection relative to mock infected cells, CW3 MOI 5: MNoV^CW3, MOI 5, ten days post-infection
Description: (§1) BV2 cells were transduced with pXPR_101 (Addgene plasmid 52962) and selected with blasticidin for eleven days. Cas9 activity was assessed by transducing parental BV2 or BV2-Cas9 cells with pXPR_011 (Addgene plasmid 59702), expresses eGFP and a sgRNA targeting eGFP at an MOI<1 [1]. Cells were transduced for 2 days and subsequently, selected for five days with puromycin and the frequency of eGFP expression was assessed by flow cytometry. The mouse ASIAGO sgRNA CRISPR library contains six independent genome wide pools which each pool containing a unique sgRNA targeting each of 20,077 mouse genes. Four ASIAGO pools were independently used to generate the BV2 library (Doench et al submitted). Each ASIAGO pool was delivered by lentiviral transduction of 5×10^7 BV2 cells at an MOI ˜0.2. This equates to 1×10^7 transduced cells, which is sufficient for the integration of each sgRNA 500 independent times. Two days post transduction, puromycin was added to the media and transduced cells were selected for five days. For each experimental condition, 1×10^7 BV2-Cas9 cells containing sgRNAs were seeded in a T175 tissue culture flask. Cells were infected with either MNoV^CW3 or MNoV^CR6 at MOls of 0.05 and 5. Mock infected cells were harvested 48 hrs after seeding and served as a reference for sgRNA enrichment analysis. Ten days post-infection genomic DNA was isolated from surviving cells using a Qiamp DNA mini kit according to manufacturer instructions (Qiagen).
(§2) Illumina sequencing and STARS analysis was performed as described previously (Doench et al, in press). Briefly, genomic DNA was aliquoted into multiple wells of a 96-well plate with up to 10 μg of DNA in 50 μl total volume. A PCR mastermix consisting of ExTaq DNA polymerase (Clontech), ExTaq buffer, dNTP, P5 stagger primer, and water was generated. 40 μl of PCR master mix, and 10 μl of a barcoded primer was added to each well containing 50 μl of DNA. Samples were PCR amplified as follows: 95° C. for 1 min., followed by 28 cycles of 94° C. for 30 sec., 52.5° C. for 30 sec., 72° C. for 30 sec. with a final 10 min. at 72° C. PCR product was purified with Agencourt AMPure XP SPRI beads according to the manufacture's protocol (Beckman Coluter). Samples were sequenced on an Illumina HiSeq 2000. Barcodes in the P7 primer were deconvuluted and the sgRNA sequence was mapped to a reference file of sgRNAs in the ASIAGO library. To normalize for different numbers of reads per condition, read counts per sgRNA were normalized to 10^7 total reads per sample. This normalized value was then log-2 transformed. sgRNAs that were not sequenced were arbitrarily assigned a read count of 1. sgRNA frequencies were then analyzed using STARS software, which is available at broadinstitute.org/rnai/public/software/index (Doench et al, in press). STARS computes a score for each gene of rank-ordered sgRNA hits that was above […] of total sequenced sgRNAs. A STAR score was only assigned to genes that scored above this threshold in at least two of four independent genome wide pools.

MNoV^CR6 = assay: CRISPR screen in BV2-Cas9 cells, sgRNA enrichment after MNoV^CR6 infection; assay type: cell-based, murine norovirus; conditions: for log2 fold enrichment after MNV infection relative to mock infected cells, CR6 MOI 0.05: MNoV^CR6, MOI 0.05, ten days post-infection; for log2 fold enrichment after MNV infection relative to mock infected cells, CR6 MOI 5: MNoV^CR6, MOI 5, ten days post-infection
Description: as §1, §2

MNoV^CW3 [2] = assay: MNoV neutralization with α-CD300lf and sCD300lf (cytotoxicity, CellTiter-Glo); assay type: cell-based, murine norovirus; conditions: virus preincubated with protein, 0.01 to 10 μg/ml; 24 hours post-infection
Description: MNoV neutralization was assessed by measuring cytotoxicity. 2.5×10^4 BV2 cells were plated per well of a 96-well plate. For antibody-mediated neutralization, cells were then incubated for 1 hour at 37° C. with polyclonal α-CD300lf (R&D systems AF2788) or an isotype control (R&D systems AB-108-C) at a final concentration from 0.01 to 10 μg/ml. MNoV^CW3 was then added at an MOI of 5 in a total volume of 100 μl. After 24 hours at 37° C., 25 μl of CellTiter-Glo (Promega) was added per well to measure cellular ATP concentrations. For sCD300lf neutralization, the assay was performed similarly except that 1.25×10^5 PFU of MNoV^CW3 was incubated with sCD300lf or a control protein (Domain III of West Nile Virus Envelope) at a final concentration from 0.01 μg to 10 μg/ml prior to addition of BV2 cells. Relative luminescence units were detected on Molecular Devices SpectraMax M2 plate reader. All conditions were normalized to an uninfected control. Each condition was done in quadruplicate in each of three independent experiments.

MNoV^CW3 [3] = assay: BMDM infection, FACS for intracellular MNoV NS1/2 expression; assay type: cell-based, murine norovirus; conditions: virus preincubated with sCD300lf or cells treated with α-CD300lf; MOI 5.0
Description: BL6 myeloid progenitors were obtained from mice (FIG. 2E) or from HoxB8-immortalized progenitors (FIG. 2D) as previously described.HoxB8-immortalized progenitors were maintained in RPMI 1640 supplemented with 1 μM β-estradiol and 25 ng/ml GM-CSF. Progenitors were differentiated into macrophages by washing the cells in PBS and plating 1×10^6 cells into BMDM media (Dulbeco's Modified Eagle Medium, 10% fetal bovine serum, 5% horse serum, 10% CMG14-12 [6], 1 mM sodium pyruvate, 2 mM L-glutamine). After 7 days of differentiation, macrophages were dissociated and 5×10^6 cells/well were seeded into a 6-well dish. Three days later, MNoV^CW3 was added to cells at an MOI of 5.0. One day post infection, MNoV NS1/2 expression was detected by flow cytometry.
Infected cells were fixed and permeabilized with Cytofix/Cytoperm (BD biosciences) Rabbit polyclonal antibody targeting the MNoV nonstructural protein NS1/2 antibody was added at a 1:5000 dilution (Gift from Vernon Ward). Cells were incubated for 30 min. at room temperature. Cells were then washed and DyLight 649 donkey anti-rabbit IgG was added and incubated for 30 min. Cells were then washed and analyzed on an LSRII flow cytometer (BD). At least 20,000 events were collected per condition. Each experiment was performed in triplicate in each of three independent experiments.

MNoV^CW3 [4] = assay: Spleen-derived MNoV neutralization (plaque assay); assay type: cell-based, murine norovirus; conditions: 75 PFU spleen-derived or BV2-derived virus, 10 μg/ml, 30 min preincubation
Description: BV2 cells were seeded at 1×10^6 cells/well of a six-well plate. 16-24 hours later, media was removed and 10-fold dilutions of cell lysate is applied to each well for 1 hour with gentle rocking. Viral inoculum was removed and 2 ml of overlay media was added (MEM, 10% FBS, 2 mM L-Gluatmine, 10 mM HEPES, and 1% methylcellulose). Plates were incubated for 2-3 days prior to visualization with crystal violet solution (0.2% crystal violet and 20% ethanol).
To isolate in vivo derived MNoV^CW3, five 7-8 week old C57BL/6J were inoculated PO with 10^6 PFU MNoV^CW3 in 25 μl PBS. Three days post inoculation, mice were sacrificed and spleens were harvested. Spleens were processed by bead beating with 1 mm silica beads (Biospec, Bartlesville, Okla.) for 1 minute. The spleen extract was centrifuged for 5 minutes at 3,000 g, the supernatant was filtered through a 0.22 μm filter, frozen at −80° C., and titered on BV2 cells as described previously.
75 PFU of either BV2 cell-derived or spleen-derived MNoV^CW3 was incubated for 30 min. at room temperature with either sCD300lf or WNV E DIII at 10 μg/ml final concentration in 100 μl total volume of D10. Each sample was then added to a confluent monolayer of BV2 cells in a 6-well plate and incubated for 1 hr. at room temperature. […] Complete media containing methylcellulose was then added and plaque formation was assessed as described previously. […]

MNoV^CW3 [5] = assay: Challenge of STAT1−/− mice with preincubated MNoV^CW3, survival; assay type: in vivo, murine norovirus; conditions: PO 10^3 or 10^5 PFU MNoV^CW3 preincubated at 10 μg/ml, 28 days
Description: B6.129S(Cg)-Stat1^tm1Div/J (STAT1^−/−) mice and C57BL/6J (Jackson Laboratories, Bar Harbor, Me.) and Fut2^−/− (B6.129X1-Fut2^tm1Sdo/J) mice (a generous gift from Dr. Alexander V. Chervonsky) were housed in a specific-pathogen free environment at Washington University. The care and use of all animals was approved by and in accordance with the Washington University Animal Studies Committee. For the challenge of STAT^−/− mice, MNoV^CW3 was incubated with sCD300lf or WNV E DIII at a final concentration of 10 μg/ml for 30 minutes at room temperature. STAT1^−/− mice were challenged with 25 μl PO of 10^3 or 10^5 PFU of MNoV^CW3 diluted in D10. STAT1^−/− mice were singly housed immediately after inoculation and monitored daily for survival for 28 days. Experiments were performed three independent times with gender-balanced littermate controls at both 10^3 and 10^5 PFU challenge doses.

MNoV^CW3 [6] = assay: MNoV binding assay to BV2 cells (bound genomes by qPCR); assay type: cell-based, murine norovirus
Description: MNoV^CW3 quantitiatve PCR (qPCR) was performed as previously described. Briefly, 5 μl of extracted viral RNA was used for cDNA synthesis using random hexamers and ImProm Reverse Transcriptase (Promega, Madison, Wis.) in 20 μl total volume. TaqMan qPCR was performed in triplicate on each sample and standard with forward primer SEQ ID NO:20 (5′ […] 3′), reverse primer SEQ ID NO:21 (5′ GCGCTGCGCCATCACTC 3′), and probe.
MNoV^CW3 binding to BV2 cells was performed for 1 hour at 4° C. in 0.5 ml complete growth media. sCD300lf was incubated with MNoV^CW3 for 30 minutes at room temperature prior to addition to cells. α-CD300lf was incubated with cells for 30 minutes at 4° C. prior to the addition of MNoV^CW3. BV2 cells were used at final concentration of 2×10^6 cells/ml, and MNoV^CW3 was used at a final concentration of 1.6×10^9 copies/ml (2.5×10^6 PFU/ml). Cells were centrifuged at 500 g for 5 min at 4° C. to remove unbound virus. Cells were washed with four 1.0 ml washes with PBS containing 2.5% FBS and 2 mM EDTA. The cell pellet was resuspended in 100 μl PBS, and RNA was extracted with the ZR Viral RNA kit (Zymo Research) according to manufacturer instructions. qPCR was performed as described above. Binding experiments were done in triplicate in each of at least three independent experiments. A condition containing virus but no cells was used to determine assay background.
To determine the effect of glycans on MNoV binding, parental BV2 cells, ΔCD300lf BV2 clone 1 cells complemented with an empty lentivirus, and ΔCD300lf BV2 clone 1 cells complemented with CD300lf were cultured in the presence of 1 μg/ml of kifunensine (Santa Cruz Biotechnology) for at least 48 hours prior to use. Kifunensine activity was determined by staining cells with FITC-conjugated wheat germ agglutinin (WGA) at 1 μg/ml final concentration (Sigma Aldrich). The reduction in glycosylation was determined by comparing the mean fluorescence intensity (MFI) with and without kifunensine treatment. WGA binding was determined at the time of each binding assay.

| Molecule | log2 fold enrichment after MNV infection relative to mock infected cells, CW3 MOI 0.05 (MNoV^CW3 [1]) [log2 fold enrichment] | log2 fold enrichment after MNV infection relative to mock infected cells, CW3 MOI 5 (MNoV^CW3 [1]) | log2 fold enrichment after MNV infection relative to mock infected cells, CR6 MOI 0.05 (MNoV^CR6) [log2 fold enrichment] | log2 fold enrichment after MNV infection relative to mock infected cells, CR6 MOI 5 (MNoV^CR6) [log2 fold enrichment] | MNoV^CW3-induced cytopathic effect in BV2 cells (cell viability) (MNoV^CW3 [2]) | MNoV^CW3 infection of primary bone marrow-derived macrophages (NS1/2 expression by FACS) (MNoV^CW3 [3]) | Neutralization of MNoV isolated from spleens of MNoV^CW3-infected mice (plaque assay) (MNoV^CW3 [4]) | Protection from MNoV induced lethality (survival) (MNoV^CW3 [5]) | MNoV^CW3 binding to BV2ΔCD300lf cells (MNoV^CW3 [6]; BV2ΔCD300lf cells, cells treated with α-CD300lf or virus premixed with sCD300lf) | MNoV^CW3 binding to BV2 cells (MNoV^CW3 [6]; wild type BV2 cells, cells treated with α-CD300lf or virus preincubated with sCD300lf, 1 hour at 4° C.) |
| --- | --- | --- | --- | --- | --- | --- | --- | --- | --- | --- |
| TAGAGCAGAGAACTGCCACA: sgRNA used in screen, matches CD300ld (listed as DNA, chemistry not given here) | −6.7 | −6.7 log2 fold enrichment | −6.7 | −6.7 | – | – | – | – | – | – |
| TCAGAGAAAGAAACGAAGAG: sgRNA used in screen, matches CD300lb (listed as DNA, chemistry not given here) | −5.5 | −5.5 log2 fold enrichment | −5.5 | −5.5 | – | – | – | – | – | – |
| TGTCACTGTGAAGATGGTGG: sgRNA used in screen, matches CD300lf (listed as DNA, chemistry not given here) | 8.4 | 13.3^B log2 fold enrichment | 7.2 | −1.9 | – | – | – | – | – | – |
| B1 | – | – | – | – | neutralized MNoV^CW3-induced cytopathic effect | inhibited | remained sensitive to sCD300lf inhibition | able to protect from MNoV induced lethality | not further inhibited | reduced MNoV binding |
